Test results as given in patent EP0811615A1, “1-Aryl-5-(substituted alkyl (thio) amido) pyrazoles and their use as pesticides” (RHONE-POULENC AGROCHIMIE, priority 1996, dated 1997).

Legend:
[1] = test system: southern root-knot nematode; test: Southern root-knot nematode soil test on tomato; format: in vivo; parameters: dose or concentration left out as unconfirmed; details: Meloidogyne incognita; Soil Conc. at 21 Kg/ha; second stage juveniles; read-out: pest mortality Nema (J2)
Description: For southern root-knot nematode and systemic tests for southern armyworm, cotton aphid, tobacco budworm and greenbug, a stock solution or suspension was prepared by adding 15 mg of the test compound to 250 mg of dimethylformamide, 1250 mg of acetone and 3 mg of the emulsifier blend referenced above. Water was then added to provide a test compound concentration of 150 ppm. When necessary, sonication was provided to insure complete dispersion.
Southern root-knot nematode: Infected roots of tomato plants, containing egg masses of southern root-knot nematode, were removed from a stock culture and cleaned of soil by shaking and washing with tap water. The nematode eggs were separated from the root tissue and rinsed with water. Samples of the egg suspension were placed on a fine screen over a receiving bowl, in which the water level was adjusted to be in contact with the screen. From the bowl, juveniles were collected on a fine screen. The bottom of a cone-shaped container was plugged with coarse vermiculite and then filled to within 1.5 cm of the top with about a 200 ml volume of pasteurized soil. Then into a hole made in the center of the soil in the cone was pipetted an aliquot of the 150 ppm test compound formulation. A treated control with a commercial technical compound, fenamifos, formulated in a similar manner, was tested as a standard. As an untreated control, an aliquot of a water-acetone-DMF-emulsifier solution, containing no test compound, was applied in a similar manner. Immediately after treatment of the soil with the test compound there were added to the top of each cone 1000 second stage juvenile southern root-knot nematodes. After 3 days, a single healthy tomato seedling was then transplanted into the cone. The cone, containing the infested soil and tomato seedling, was kept in the greenhouse for 3 weeks. At the termination of the test, […], […]

southern armyworm = test: Southern armyworm foliar spray test on bean plants; format: in vivo; details: Spodoptera eridania, 120 h; foliar application at 100 ppm; second instar larvae, held five days; read-out: pest mortality SAW
Description: (§1) For mite, aphid, southern armyworm, Mexican bean beetle, and tobacco budworm tests, a solution or suspension was prepared by adding 10 mg of the test compound to a solution of 160 mg of dimethylformamide, 838 mg of acetone, 2 mg of a 3:1 ratio of Triton X-172 : Triton X-152 (respectively, mainly anionic and nonionic low foam emulsifiers which are each anhydrous blends of alkylaryl polyether alcohols with organic sulfonates), and […] of water. The result was a concentration of 100 ppm of the test compound.
(§2) Southern armyworm: Potted bean plants, were placed on a revolving turntable and sprayed with 100 ml of the 100 ppm test compound formulation by use of a DeVilbiss spray gun set at 40 psig air pressure. As an untreated control, 100 ml of a water-acetone-DMF-emulsifier solution, containing no test compound, were also sprayed on plants. A treated control with a commercial technical compound, either cypermethrin or sulprofos, formulated in the same manner, was tested as a standard. When dry, the leaves were placed in plastic cups lined with moistened filter paper. Five randomly selected second instar southern armyworm larvae were introduced into each cup which was closed and held for five days. Larvae which were unable to move the length of the body, even upon stimulation by prodding, were considered dead.

housefly = test: House fly bait test; format: in vivo; details: Musca domestica; bait application at 100 ppm; adult flies, after 24 hours; read-out: pest mortality HF
Excerpt: For housefly tests, the formulation was initially prepared in a similar manner to the above, but in 16.3 g of water with corresponding adjustment of other components, providing a 200 ppm concentration. Final dilution with an equal volume of a 20% by weight aqueous solution of sucrose provided a 100 ppm concentration of the test compound. When necessary, sonication was provided to insure complete dispersion.
House fly: Four to six day old adult house flies were reared according to the specifications of the Chemical Specialties Manufacturing Association (Blue Book, McNair-Dorland Co., N.Y. 1954; pages 243-244, 261) under controlled conditions. The flies were immobilized by anesthetizing with carbon dioxide and twenty five immobilized individuals, males and females, were transferred to a cage consisting of a standard food strainer and a wrapping-paper-covered surface. Ten ml of the 100 ppm test compound formulation were added to a soufflé cup containing an absorbent cotton pad. As an untreated control, 10 ml of a water-acetone-DMF-emulsifier-sucrose solution, containing no test compound, were applied in a similar manner. A treated control with a commercial technical compound, malathion, formulated in the same manner, was tested as a standard. The bait cup was introduced inside the food strainer prior to admitting the anesthetized flies.

Mexican bean beetle = Mexican bean beetle foliar spray test on bean plants; format: in vivo; details: Epilachna varivestis, 120 h; foliar application at 100 ppm; second instar larvae, held five days; read-out: pest mortality MBB
Description: as §1
as §2, with “Mexican bean beetle:” for “Southern armyworm:”, “plants” for “plants,”, “formulation, sufficient to wet the plants to runoff,” for “formulation”, “Mexican bean beetle” for “southern armyworm”

[2] = test system: buckthorn or cotton aphid; test: Buckthorn or cotton aphid foliar spray test; format: in vivo, Aphis nasturtii / Aphis gossypii; details: Aphis gossypii; foliar application at 100 ppm; counted after one day (buckthorn aphid) or three days (cotton aphid); read-out: pest mortality BA*/CA
Description: as §1
Buckthorn or cotton aphid: Adult and nymphal stages of buckthorn or cotton aphid were reared on potted dwarf nasturtium or cotton plants, respectively. The potted plants (one pot per compound tested) infested with 100-150 aphids, were placed on a revolving turntable and sprayed with 100 ml of the 100 ppm test compound formulation by use of a DeVilbiss spray gun set at 40 psig air pressure. As an untreated control, 100 ml of a water-acetone-DMF-emulsifier solution, containing no test compound, were also sprayed on infested plants. A treated control with a commercial technical compound, malathion or cyhalothrin, formulated in the same manner, was tested as a standard. After spraying, the pots were stored for one day on buckthorn aphid or three days for cotton aphid, after which the dead aphids were counted.

tobacco budworm = test: Tobacco budworm foliar spray test on cotton plants; format: in vivo; details: Heliothis virescens, 120 h; foliar application at 100 ppm; second instar larvae, held five days; read-out: pest mortality TBW
Description: as §1
Tobacco budworm: Potted cotton plants were placed on a revolving turntable and sprayed with 100 ml of the 100 ppm test compound formulation by use of a DeVilbiss spray gun set at 40 psig air pressure. As an untreated control, 100 ml of a water-acetone-DMF-emulsifier solution, containing no test compound, were also sprayed on plants. A treated control with a commercial technical compound, either cypermethrin or sulprofos, formulated in the same manner, was tested as a standard. When dry, the leaves were placed in plastic dishes containing a piece of filter paper and a moistened dental wick. One randomly selected second instar tobacco budworm larva was then introduced into each cup which was closed and held for five days. Larvae unable to move the length of their body, even upon stimulation by prodding, were considered dead.

twospotted spider mite = test: Twospotted spider mite test; format: in vivo; details: Tetranychus urticae, 144 h; 100 ppm in foliar bait tests; read-out: control of mites
Description: Twospotted spider mite: Leaves infested with adult and nymphal stages of the two-spotted spider mite, obtained from a stock culture were placed on the primary leaves of two bean plants growing in a 6 cm. peat pot. A sufficient number of mites (150-200) for testing were transferred to the fresh plants within a period of twenty-four hours. The potted plants (one pot per compound) were placed on a revolving turntable and sprayed, sufficient to wet the plants to runoff, with 100 ml of the 100 ppm test compound formulation by use of a DeVilbiss spray gun set at 40 psig. air pressure. As an untreated control, 100 ml of the water-acetone-DMF-emulsifler solution, containing no test compound, were also sprayed on infested plants. A treated control with a commercial technical compound, either dicofol or hexythiazox, formulated in the same manner, was tested as a standard. The sprayed plants were held for six days, after which a mortality count of motile forms was made.

Structure (SMILES)	mortality [1] [%]	mortality at 100 ppm (southern armyworm) [%]	mortality at 100 ppm (housefly) [%]	mortality at 100 ppm (Mexican bean beetle) [%]	mortality at 100 ppm [2] [%]	mortality at 100 ppm (tobacco budworm) [%]	mortality at 100 ppm (twospotted spider mite) [%]
N#Cc1nn(-c2c(Cl)cc(C(F)(F)F)cc2Cl)c(NC(=O)CO)c1SC(F)(F)F [Compound 32]	70 to 100	70 to 100	70 to 100	–	–	–	–
CCOCC(=O)Nc1c(SC(F)(F)F)c(C#N)nn1-c1c(Cl)cc(C(F)(F)F)cc1Cl [Compound 2]	–	70 to 100	70 to 100	70 to 100	70 to 100	70 to 100	–
CCOC(C)C(=O)Nc1c(SC(F)(F)F)c(C#N)nn1-c1c(Cl)cc(C(F)(F)F)cc1Cl (stereo not drawn) [Compound 39]	70 to 100	70 to 100	70 to 100	70 to 100	–	–	–
COC(C)C(=O)Nc1c(SC(F)(Cl)Cl)c(C#N)nn1-c1c(Cl)cc(OC(F)(F)F)cc1Cl (stereo not drawn) [Compound 47]	–	70 to 100	70 to 100	–	–	70 to 100	30 to 70
COCC(=O)Nc1c(S(=O)(=O)C(F)(F)F)c(C#N)nn1-c1ncc(C(F)(F)F)cc1Cl [Compound 50]	70 to 100	70 to 100	70 to 100	–	70 to 100	–	–
COC(C)C(=O)Nc1c(S(=O)(=O)C(F)(F)F)c(C#N)nn1-c1c(Cl)cc(C(F)(F)F)cc1Cl (stereo not drawn) [Compound 25]	70 to 100	70 to 100	70 to 100	70 to 100	70 to 100	–	–
COCC(=O)Nc1c(S(=O)(=O)C(F)(F)F)c(C#N)nn1-c1c(Cl)cc(C(F)(F)F)cc1Cl [Compound 11]	70 to 100	70 to 100	70 to 100	70 to 100	–	–	–
CCOCC(=O)Nc1c([S+]([O-])C(F)(F)F)c(C#N)nn1-c1c(Cl)cc(C(F)(F)F)cc1Cl (stereo not drawn) [Compound 8]	70 to 100	70 to 100	70 to 100	70 to 100	–	70 to 100	–
COCCOCC(=O)Nc1c([S+]([O-])C(F)(F)F)c(C#N)nn1-c1c(Cl)cc(C(F)(F)F)cc1Cl (stereo not drawn) [Compound 9]	70 to 100	70 to 100	70 to 100	70 to 100	–	70 to 100	–
COCC(=O)Nc1c([S+]([O-])C(F)(Cl)Cl)c(C#N)nn1-c1c(Cl)cc(C(F)(F)F)cc1Cl (stereo not drawn) [Compound 17]	70 to 100	70 to 100	70 to 100	–	–	70 to 100	–
COCCOCC(=O)Nc1c(S(=O)(=O)C(F)(F)F)c(C#N)nn1-c1c(Cl)cc(C(F)(F)F)cc1Cl [Compound 13]	70 to 100	70 to 100	–	–	70 to 100	–	–
CCCCCCCOCC(=O)Nc1c(SC(F)(F)F)c(C#N)nn1-c1c(Cl)cc(C(F)(F)F)cc1Cl [Compound 34]	70 to 100	70 to 100	70 to 100	–	–	–	–
COC(C)C(=O)Nc1c([S+]([O-])C(F)(Cl)Cl)c(C#N)nn1-c1c(Cl)cc(C(F)(F)F)cc1Cl (stereo not drawn) [Compound 28]	70 to 100	70 to 100	70 to 100	70 to 100	–	70 to 100	–
CCOCC(=O)Nc1c(S(=O)(=O)C(F)(F)F)c(C#N)nn1-c1c(Cl)cc(C(F)(F)F)cc1Cl [Compound 12]	70 to 100	70 to 100	70 to 100	–	–	70 to 100	–
CCCCOC(C)C(=O)Nc1c(SC(F)(F)F)c(C#N)nn1-c1c(Cl)cc(C(F)(F)F)cc1Cl (stereo not drawn) [Compound 42]	70 to 100	70 to 100	70 to 100	–	–	–	–
COC(C(=O)Nc1c(SC(F)(F)F)c(C#N)nn1-c1c(Cl)cc(C(F)(F)F)cc1Cl)c1ccccc1 (stereo not drawn) [Compound 22]	–	70 to 100	70 to 100	–	70 to 100	70 to 100	–
COCC(=O)Nc1c(SC(F)(Cl)Cl)c(C#N)nn1-c1c(Cl)cc(OC(F)(F)F)cc1Cl [Compound 46]	–	70 to 100	70 to 100	–	–	70 to 100	30 to 70
CCOCC(=O)Nc1c([S+]([O-])C(F)(Cl)Cl)c(C#N)nn1-c1c(Cl)cc(C(F)(F)F)cc1Cl (stereo not drawn) [Compound 18]	70 to 100	70 to 100	–	70 to 100	–	70 to 100	–
COCC(=O)Nc1c([S+]([O-])C(F)(F)F)c(C#N)nn1-c1c(Cl)cc(C(F)(F)F)cc1Cl (stereo not drawn) [Compound 7]	70 to 100	70 to 100	70 to 100	70 to 100	–	70 to 100	–
